Patent US20200277571A1, “METHOD FOR AMPLIFYING CONE PHOTORECEPTORS OR ROD PHOTORECEPTORS USING DORSALIZATION SIGNAL TRANSMITTER OR VENTRALIZATION SIGNAL TRANSMITTER” (RIKEN, priority 2017, published 2020)

Columns and labels:
ALDH1A1 gene = assay: Quantitative PCR of ALDH1A1 gene expression in retinal tissue; assay type: cell-based, human
Description: [1] Control group (FIG. 2a, f, k, p); according to the method described in Example 1, culture was performed up to day 70 or day 75 from the start of suspension culture and without addition. [2]+BMP group (FIG. 2b, g, 1, q); 0.15 nM BMP4 was added from day 22 from the start of suspension culture to completion of suspension culture, and cultured up to day 70 or day 75 from the start of suspension culture. [3]+Cyclopamine-KAAD group (FIG. 2c, h, m, r); 500 nM Cyclopamine-KAAD was added from day 22 from the start of suspension culture to completion of the suspension culture, and cultured up to day 70 or day 75 from the start of suspension culture. [4]+LDN193189 group (FIG. 2d, i, n, s); 100 nM LDN193189 was added from day 22 from the start of suspension culture to completion of the suspension culture, and cultured up to day 70 or day 75 from the start of suspension culture. [5]+SAG group (FIG. 2e, j, o, t); 100 nM SAG was added from day 22 from the start of suspension culture to completion of the suspension culture, and cultured up to day 70 or day 75 from the start of suspension culture.
The expression level of ALDH1A1 gene was analyzed by quantitative PCR using the same cDNA as that used in Example 7. As a result, similar to that observed by immunostaining, the expression level of ALDH1A1 gene was promoted in +BMP4 group as compared to the Control (NUC) group on about day 40 from the start of suspension culture (FIG. 8-2, black bar (d40) in graph). […]
After extracting RNA from retinal tissue prepared in this way, cDNA was synthesized and the expression level of ALDH1A1 gene was analyzed by quantitative PCR. […] Furthermore, a retinal tissue prepared using 1.35 nM BMP4 was fixed with 4% para-formaldehyde, cryosections were prepared, and immunostaining using an antibody against GFP (fluorescence of GFP variant incorporated in CRX gene locus can be identified. That is, cells similar to CRX-positive cell can be identified), ALDH1A1, or DAPI staining for staining the nucleus was performed. […]

[1] = tested on: photoreceptor precursor and cone photoreceptor precursor in retinal tissue produced from human ES cells; assay: Immunostaining for CRX and TRβ2 and CRX::Venus fluorescence observation of retinal tissue, day 70-75 of suspension culture; assay type: cell-based
[2] = tested on: S-opsin, M-opsin, L-opsin; assay: Quantitative PCR of S-opsin, M-opsin, L-opsin after maturation culture in serum-free medium; assay type: cell-based, human; conditions: BMP4 (0-1.35 nM) added in combination with T3 (0-8 nM) in serum-free DMEM/F12 after about day 190, not less than 30 days
Description: By a method similar to the methods described in Example 1 and Example 3, a cell aggregate containing a retinal tissue in a differentiation stage matured to the level that Muller cell was observed was prepared and culture was performed, in the serum-containing medium used, up to about day 190 to give a retinal tissue in a differentiation stage matured to the level that Muller cell was observed. Thereafter, by a method similar to the methods described in Example 11 and 12, further maturation was performed. That is, 0-1.35 nM BMP4 and 0-8 nM T3 were added to a medium obtained by adding 1% N2 supplement and 100 μM taurine but not adding 10% fetal calf serum to DMEM/F12 medium containing glutamic acid as a component, and culture was performed for not less than 30 days from the start of culture for further maturation. A cell aggregate containing a retinal tissue was recovered, quantitatively PCR was performed according to a conventional method, and the expression levels of S-opsin, M-opsin, L-opsin were confirmed. As a result, irrespective of the presence or absence of BMP4, the expression of S-opsin was promoted when T3 was absent.

BMP4: BMP protein; BMP signal transduction pathway agonist used as dorsalization signal transmitter
ALDH1A1 gene expression (ALDH1A1 gene; 1.35 nM BMP4 from day 22, day 70-75): significantly increased
expression level of ALDH1A1 gene versus Control (NUC) group (ALDH1A1 gene; about day 40, 0.15 nM BMP4 from day 22): promoted
ALDH1A1 gene expression (ALDH1A1 gene; about day 70 (versus about day 40), 0.15 nM BMP4 from day 22): tendency of decrease
CRX::Venus-positive cells as compared with group added with 0.15 nM BMP4 ([1]; 0.45 nM BMP4 from day 22): became less
CRX::Venus-positive cells as compared with group added with 0.15 nM BMP4 ([1]; 1.35 nM BMP4 from day 22): became less
expression of L and M-opsin [2]: promoted
